Experimental data published in ChEMBL document CHEMBL3132750, “4-Chlorocolchicine derivatives bearing a thiourea side chain at the C-7 position as potent anticancer agents” (Medchemcomm, 2014).

Tests used:
Mus musculus [1] = assay: Toxicity in human HCT116 cells xenografted in BALB/C nude mouse assessed as mouse mortality at 10 mg/kg, iv administered three times on days 1, 5, and 9; assay type: organism-based, HCT-116; set-up: dose 10 mg/kg, route intravenous; details: in vivo
HCT-116 [2] = assay: Antitumor activity against human HCT116 cells xenografted in BALB/C nude mouse assessed as tumor growth inhibition rate at 20 mg/kg, iv administered three times on days 1, 5, and 9; assay type: functional; details: read-out: TGI
HT-29 = assay: Cytotoxicity against human HT-29 cells assessed as inhibition of cell proliferation after 96 hrs; assay type: functional, cell-based; details: HT-29, 96 h
Mus musculus [3] = assay: Toxicity in human HCT116 cells xenografted in BALB/C nude mouse assessed as weight loss at 20 mg/kg, iv administered three times on days 1, 5, and 9; assay type: organism-based, HCT-116; set-up: dose 20 mg/kg, route intravenous; details: in vivo
Mus musculus [4] = assay: Toxicity in human HCT116 cells xenografted in BALB/C nude mouse assessed as weight loss at 10 mg/kg, iv administered three times on days 1, 5, and 9; assay type: organism-based, HCT-116; set-up: dose 10 mg/kg, route intravenous; details: in vivo
A549 = assay: Cytotoxicity against human A549 cells assessed as inhibition of cell proliferation after 96 hrs; assay type: functional, cell-based; details: A549, 96 h
HCT-116 [5] = assay: Antitumor activity against human HCT116 cells xenografted in BALB/C nude mouse assessed as tumor growth inhibition rate at 10 mg/kg, iv administered three times on days 1, 5, and 9; assay type: functional; details: read-out: TGI
Mus musculus [6] = assay: Toxicity in human HCT116 cells xenografted in BALB/C nude mouse assessed as mouse mortality at 20 mg/kg, iv administered three times on days 1, 5, and 9; assay type: organism-based, HCT-116; set-up: dose 20 mg/kg, route intravenous; details: in vivo
HCT-116 [7] = assay: Cytotoxicity against human HCT116 cells assessed as inhibition of cell proliferation after 96 hrs; assay type: functional, cell-based; details: HCT-116, 96 h
[8] = Metabolic stability in BALB/c mouse hepatic microsomes assessed per mg of microsomal protein at 1 umol/L preincubated for 5 mins by LC-MS/MS method; assay type: ADME, Liver, Microsome; details: 1 µM
Tubulin = Tubulin (Sus scrofa, UniProt P02554+P02550); assay: Inhibition of tubulin polymerization assessed as reduction in tubulin assembly after 5 mins using pig microtubule protein by spectrophotometry; assay type: protein assay
HCT-116 [9] = assay: Antitumor activity against human HCT116 cells xenografted in BALB/C nude mouse assessed as tumor growth inhibition rate at 40 mg/kg, iv administered three times on days 1, 5, and 9; assay type: functional; details: read-out: TGI
Mus musculus [10] = assay: Toxicity in human HCT116 cells xenografted in BALB/C nude mouse assessed as weight loss at 40 mg/kg, iv administered three times on days 1, 5, and 9; assay type: organism-based, HCT-116; set-up: dose 40 mg/kg, route intravenous; details: in vivo
Mus musculus [11] = assay: Toxicity in human HCT116 cells xenografted in BALB/C nude mouse assessed as mouse mortality at 40 mg/kg, iv administered three times on days 1, 5, and 9; assay type: organism-based, HCT-116; set-up: dose 40 mg/kg, route intravenous; details: in vivo
HCT-116 [12] = assay: Antitumor activity against human HCT116 cells xenografted in BALB/C nude mouse assessed as tumor growth inhibition rate at 50 mg/kg, iv administered three times on days 1, 5, and 9; assay type: functional; details: read-out: TGI
Mus musculus [13] = assay: Toxicity in human HCT116 cells xenografted in BALB/C nude mouse assessed as mouse mortality at 50 mg/kg, iv administered three times on days 1, 5, and 9; assay type: organism-based, HCT-116; set-up: dose 50 mg/kg, route intravenous; details: in vivo
HCT-116 [14] = assay: Antitumor activity against human HCT116 cells xenografted in BALB/C nude mouse assessed as tumor growth inhibition rate at 25 mg/kg, iv administered three times on days 1, 5, and 9; assay type: functional; details: read-out: TGI
Mus musculus [15] = assay: Toxicity in human HCT116 cells xenografted in BALB/C nude mouse assessed as weight loss at 25 mg/kg, iv administered three times on days 1, 5, and 9; assay type: organism-based, HCT-116; set-up: dose 25 mg/kg, route intravenous; details: in vivo
Mus musculus [16] = assay: Toxicity in human HCT116 cells xenografted in BALB/C nude mouse assessed as mouse mortality at 25 mg/kg, iv administered three times on days 1, 5, and 9; assay type: organism-based, HCT-116; set-up: dose 25 mg/kg, route intravenous; details: in vivo
Mus musculus [17] = assay: Toxicity in human HCT116 cells xenografted in BALB/C nude mouse assessed as weight loss at 50 mg/kg, iv administered three times on days 1, 5, and 9; assay type: organism-based, HCT-116; set-up: dose 50 mg/kg, route intravenous; details: in vivo

Compound: COc1c(Cl)c2c(c(OC)c1OC)-c1ccc(OC)c(=O)cc1[C@@H](NC(=S)Nc1ccc(N(C)C)cc1)CC2
- Activity (Mus musculus [1]): Non-toxic
- inhibition in vivo at 20 mg/kg (HCT-116 [2]): 52.5%
- IC50 (HT-29): 0.3 nM
- Activity (Mus musculus [3]): Non-toxic
- Activity (Mus musculus [4]): Non-toxic
- IC50 (A549): 1.8 nM
- inhibition in vivo at 10 mg/kg (HCT-116 [5]): 32.6%
- Activity (Mus musculus [6]): Non-toxic
- IC50 (HCT-116 [7]): 1.1 nM
- Intrinsic clearance [8]: 152 µL/min/mg

Compound: CCNC(=S)N[C@H]1CCc2c(Cl)c(OC)c(OC)c(OC)c2-c2ccc(OC)c(=O)cc21
- IC50 (Tubulin): 2360 nM
- inhibition in vivo at 20 mg/kg (HCT-116 [2]): 44.4%
- IC50 (HT-29): 8.6 nM
- Activity (Mus musculus [3]): Non-toxic
- IC50 (A549): 37.9 nM
- inhibition in vivo at 40 mg/kg (HCT-116 [9]): 62.6%
- Activity (Mus musculus [6]): Non-toxic
- Activity (Mus musculus [10]): Non-toxic
- IC50 (HCT-116 [7]): 7.9 nM
- Intrinsic clearance [8]: 124 µL/min/mg
- Activity (Mus musculus [11]): Non-toxic

Compound: CCN(CC)C(=S)N[C@H]1CCc2c(Cl)c(OC)c(OC)c(OC)c2-c2ccc(OC)c(=O)cc21
- inhibition in vivo at 50 mg/kg (HCT-116 [12]): 54.6%
- IC50 (HT-29): 6.1 nM
- IC50 (A549): 10.1 nM
- Activity (Mus musculus [13]): Non-toxic
- IC50 (HCT-116 [7]): 6.9 nM
- inhibition in vivo at 25 mg/kg (HCT-116 [14]): 29.5%
- Activity (Mus musculus [15]): Non-toxic
- Intrinsic clearance [8]: 541 µL/min/mg
- Activity (Mus musculus [16]): Non-toxic
- Activity (Mus musculus [17]): Non-toxic

Compound: COc1c(Cl)c2c(c(OC)c1OC)-c1ccc(OC)c(=O)cc1[C@@H](NC(=S)N1CCOCC1)CC2
- inhibition in vivo at 50 mg/kg (HCT-116 [12]): 52.7%
- IC50 (HT-29): 7.2 nM
- IC50 (A549): 44.9 nM
- Activity (Mus musculus [13]): Non-toxic
- IC50 (HCT-116 [7]): 9.1 nM
- inhibition in vivo at 25 mg/kg (HCT-116 [14]): 31.3%
- Activity (Mus musculus [15]): Non-toxic
- Intrinsic clearance [8]: 61 µL/min/mg
- Activity (Mus musculus [16]): Non-toxic
- Activity (Mus musculus [17]): Non-toxic
